Columns and labels:
[1] = test system: piglet epidermal cells; experiment: Piglet skin organ culture, 3H-thymidine incorporation into the epidermis; type: cell-based, pig
Text: Pig skin is morphologically and biochemically similar to human skin and is therefore used commonly for testing the effects of materials for, human topical use. Fresh shaved skin from piglets was obtained from the local slaughter house, washed with Dove® Soap and dermatomed at 200μ thickness to obtain the top epidermis and dermal layer. Uniform punch biopsies of the dermatomed pig skin was taken using a 7 mm punch. The biopsies were washed in medium containing high antibiotic/antimycotic mix(Kanamycin and penicillin and streptomycin from Gibco) and incubated for 3 days in high glucose DMEM medium containing hydrocortisone, L-glutamine, antibiotic and antimycotic in the absence of serum in transwell plates, 3 biopsies per well. The medium was fed from the bottom of the transwell so that the epidermal side of the biopsies was in contact with air. On the 3rd day, the medium was changed to fresh medium, and the biopsies were exposed to the various concentrations of various actives in 1 μl of DMSO, as indicated in Table 4. 3 days later, medium was changed, actives readded and the biopsies were labeled with 10 μCi of 3H thymidine per well. After washing the biopsies in PBS, the epidermis was split from the dermis by incubating the biopsies for 24 hrs in 2 M sodium bromide solution with shaking. The epidermis was peeled off from the dermis using a tweezer and dissolved in1 ml of 0.5N NaOH with overnight incubation at 60 ° C. 200 μl of the dissolved epidermis was used for scintillation counting to determine the amount of ^3H thymidine incorporation into the epidermis. The data was calculated as mean cpm for at least 4 replicates, and was also calculated as % of control biopsies which received no actives.

[2] = test system: ZR75 cells; experiment: 3H-thymidine incorporation (DNA synthesis / proliferation) in ZR75 cells, test for estrogen-like activity; type: cell-based, human; settings: for ZR 75 DNA synthesis (% of Control): Experiment 1; for % of Control / cpm ± SD: 10 nM
Text: The incorporation of ^3H-thymidine by cultured cells was used as an assay of cell proliferation (ZR75 or keratinocyte). Thymidine is one of four deoxynucleosides which are the monomeric units of DNA. Prior to cell division of a somatic cell, the complete genome of the cell undergoing cell division is replicated. This involves large scale DNA synthesis by the cell and enables both daughter cells to receive identical copies of the genetic material. When ^3H-thymidine is included in the culture media of cells which are synthesizing DNA in preparation for cell division then the labeled thymidine is incorporated into the newly synthesized DNA. The extent of incorporation of ^3H-thymidine into a population of cells is proportional to the rate of DNA synthesis. by this population of cells and therefore an indication of their cellular proliferation.
ZR75 cell line is a ductal breast carcinoma cell line, originally isolated from malignant mammary epithelium of a person (Engel et al., Human breast carcinoma cells in continuous culture: A review., Cancer Res., 38: 4327-4339, 1978) This cell line contains receptors for estrogen, progesterone and other steroid hormones, but responds through an increase in proliferation only to estrogen. The cell line contains high affinity estrogen-specific receptors. Therefore, this cell line is used for testing estrogen-like activity (Markiewicz et al., In vitro bioassays of non-steroidal phytoestrogens, J. Steroid Biochem. Molec. Biol., 45: 399-405, 1993).
1. ZR75 cells (from American Type Culture Collection, Rockville, Md.) were grown in RPMT1640 media (from Gibco Life Technologies) with 10% fetal bovine serum (FBS), 100 units penicillin per ml and 100 units of streptomycin per ml. […] The. cells were seeded at a density of one million per 75 cm2 flask. For the experiment, the cells were seeded in 24 well plates at 100,000 cells per ml per well.
2. After growing for 24 hours, the media was removed, the cells were washed with PBS and 1 ml of RPMI 1640 without serum (but with streptomycin and penicillin) was added. Stock solutions of chick pea extract in dimethyl sulfoxide. (DMSO) and estradiol in water were prepared. […] After another 24 hours, […] of [methyl-3H] thymidine was added to each well. The media was removed after 24 hours. The cells were washed once in PBS, the PBS was removed completely and the cells were left on ice to incubate with 1 ml per well of10% TCA (trichlioroacetic acid) for 30 minutes. The plates were washed 3 times with 5% TCA to remove all traces of thymidine which wasn't incorporated into the cells. 500 μl of 0.1M sodium hydroxide was added to each well and the plates were incubated at room temperature for at least 30 minutes. 250 μl of each sample was transferred to scintillation vials and after adding 5 ml of counting fluid, the vials were counted for 5 minutes each on a setting for tritium. […] Values were expressed as mean of triplicate wells ± standard deviation.

## O=c1c(-c2ccc(O)cc2)coc2cc(O)ccc12 [Daidzein, daidzein]
[1]
  proliferation of piglet epidermal cells, in words: more effective than the natural hormone estradiol
[1]; Experiment 1, 1 μg/ml
  % of Control: 227 ± 24.4 % of Control
  cpm ± SD: 8599 ± 927 cpm
[1]; Experiment 1, 10 μg/ml
  % of Control: 292 ± 76.5 % of Control
  cpm ± SD: 11065 ± 2901 cpm

## C[C@]12CC[C@@H]3c4ccc(O)cc4CC[C@H]3[C@@H]1CC[C@@H]2O [Estradiol, estradiol]
[2]; 0.01 nM
  ZR 75 DNA synthesis (% of Control): 117 ± 19.7 % of Control
[2]; 0.1 nM
  ZR 75 DNA synthesis (% of Control): 106 ± 16.3 % of Control
[2]; 1.0 nM
  ZR 75 DNA synthesis (% of Control): 162 ± 3.2 % of Control
[2]; 10.0 nM
  ZR 75 DNA synthesis (% of Control): 267 ± 15.1 % of Control
[2]; 100 nM
  ZR 75 DNA synthesis (% of Control): 203 ± 51.2 % of Control
[2]; 1000 nM
  ZR 75 DNA synthesis (% of Control): 178 ± 20.1 % of Control
[2]; Experiment 2
  % of Control: 839 ± 27 % of Control
  cpm ± SD: 122254 ± 3940 cpm
[2]; Experiment 3
  % of Control: 211 ± 7.6 % of Control
  cpm ± SD: 30158 ± 1087 cpm
[2]; Table 1
  concentration that increased DNA synthesis of ZR75 cells: ≥ 1 nM
[1]; Experiment 1, 1 nM
  % of Control: 58.9 ± 24.4 % of Control
  cpm ± SD: 2690 ± 1113 cpm
[1]; Experiment 1, 10 nM
  % of Control: 113 ± 24 % of Control
  cpm ± SD: 5190 ± 1096 cpm
[1]; Experiment 1, 100 nM
  % of Control: 39.0 ± 32.6 % of Control
  cpm ± SD: 1757 ± 1492 cpm
[1]; Experiment 2, 1 nM
  % of Control: 196 ± 67.7 % of Control
  cpm ± SD: 2273 ± 783 cpm
[1]; Experiment 2, 10 nM
  % of Control: 330 ± 101 % of Control
  cpm ± SD: 3817 ± 1175 cpm
[1]; Experiment 2, 100 nM
  % of Control: 241 ± 65 % of Control
  cpm ± SD: 2785 ± 751 cpm

## COc1ccc(-c2coc3cc(O)ccc3c2=O)cc1 [Formononetin, formononetin]
[1]; Experiment 1, 1 μg/ml
  % of Control: 126 ± 33.2 % of Control
  cpm ± SD: 4770 ± 1260 cpm
[1]; Experiment 1, 10 μg/ml
  % of Control: 174 ± 76.1 % of Control
  cpm ± SD: 6608 ± 2886 cpm

Source: patent US6548072B1, “Skin care compositions containing an organic extract of chick pea” (Chesebrough-Pond's USA Co., division of Conopco, Inc., priority 1997, dated 2003)
